Experiments:
HEK293 cells [1] = assay: Ribosome profiling (deep sequencing of ribosome-protected mRNA fragments, GTI-seq) of drug-treated cells; type: cell-based, Human; conditions: 30 min, FIG. 1C; for distribution of RPF reads relative to the annotated start codon: 100 μM CHX, 50 μM LTM or 2 μg/ml harringtonine, metagene analysis, 1D
Description: FIGS. 1A-D show the experimental strategy of GTI-seq using ribosome E-site translation inhibitors. Specifically, FIG. 1A is a schematic diagram of the experimental design for GTI-seq. Translation inhibitors cycloheximide (“CHX”) and lactimidomycin (“LTM”) bind to the ribosome E-site, resulting in inhibition of translocation. While CHX binds to all translating ribosomes (FIG. 1A, left panel), LTM preferably incorporates into the initiating ribosomes when the E-site is free of tRNA (FIG. 1A, right panel). FIG. 1B is a schematic illustration showing ribosome profiling using CHX and LTM side-by-side, which allows distinguishing the initiating ribosome from the elongating one. FIG. 1C is a graph showing data related to HEK293 cells being treated with either DMSO, 100 μM CHX, or 50 μM LTM for 30 min before ribosome profiling. Normalized RPF reads were averaged across the entire transcriptome, aligned at either their start site or stop codon. FIG. 1D presents two graphs showing metagene analysis of RPFs obtained from HEK293 cells treated with either harringtonine (FIG. 1D, left panel) or LTM (FIG. 1D, right panel). All mapped reads were aligned at the annotated start codon AUG, and the reads density at each nucleotide position was averaged using the P-site of RPFs.
HEK293 or MEF cells were treated with 100 μM CHX, 50 μM LTM, 2 μg/ml harringtonine or DMSO at 37° C. for 30 min. Cells were lysed in polysome buffer and cleared lysates were separated by sedimentation through sucrose gradients. Collected polysome fractions were digested with RNase I and the RPF fragments were size selected and purified by gel extraction. After the construction of sequencing library from these fragments, deep sequencing was performed using IlluminaHiSEQ. The trimmed RPF reads with final lengths of 26-29 nt were aligned to the RefSeq transcript sequences by Bowtie-0.12.7 allowing one mismatch. A TIS position on individual transcript was called if the normalized LTM reads density at the every nucleotide position subtracting with that of CHX was well above the background. In analysis of non-coding RNA, only reads unique to single ncRNA were used. To experimentally validate the identified TIS codons, specific genes encompassing both the 5′UTR and the CDS were amplified by RT-PCR from total cellular RNAs extracted from HEK293 cells. The resultant cDNAs were cloned into pcDNA3.1 containing c-myc tag at the COOH-terminus. After transfection into HEK293 cells, whole cell lysates were used for immunoblotting using anti-myc antibody.
Human HEK293 and mouse embryonic fibroblast (“MEF”) were maintained in Dulbecco's Modified Eagle's Medium (“DMEM”) with 10% fetal bovine serum (“FBS”). Cycloheximide was purchased from Sigma and harringtonine from LKT Laboratories. […]

HEK293 cells [2] = assay: Polysome profiling by sucrose gradient sedimentation of drug-treated cells; type: cell-based, Human; conditions: 100 μM CHX or 50 μM LTM, 30 min, compared to no-drug treatment (DMSO), FIG. 7
Procedure: FIG. 7 is a series of graphs showing polysome profile analysis in cells treated with ribosome E-site translation inhibitors. In particular, HEK293 cells were pre-treated with equal volume of DMSO, 100 μM CHX, or 50 μM LTM for 30 min followed by sucrose gradient sedimentation. Both 80S monosome and polysome peaks are indicated.
HEK293 or MEF cells were treated with 100 μM CHX, 50 μM LTM, 2 μg/ml harringtonine or DMSO at 37° C. for 30 min. Cells were lysed in polysome buffer and cleared lysates were separated by sedimentation through sucrose gradients. Collected polysome fractions were digested with RNase I and the RPF fragments were size selected and purified by gel extraction. […] The trimmed RPF reads with final lengths of 26-29 nt were aligned to the RefSeq transcript sequences by Bowtie-0.12.7 allowing one mismatch. A TIS position on individual transcript was called if the normalized LTM reads density at the every nucleotide position subtracting with that of CHX was well above the background. In analysis of non-coding RNA, only reads unique to single ncRNA were used. […]
Sucrose solution was prepared in polysome buffer (pH 7.4, 10 mM HEPES, 100 mM KCl, 5 mM MgCl2). […] Separated samples were fractionated at 0.750 ml/min through a fractionation system (Isco) that continually monitored OD254 values. […]

Row | Compound | distribution of RPF reads relative to the annotated start codon (HEK293 cells [1]) | effect on polysome profile (80S monosome and polysome peaks) (HEK293 cells [2]) | effect on ribosome (RPF) density at the stop codon (HEK293 cells [1]; 50 μM LTM, versus untreated cells or CHX)
1 | C[C@@H]1C[C@@H]([C@H](O)CC2CC(=O)NC(=O)C2)C(=O)[C@@H](C)C1 [CHX, cycloheximide] | an excess of RPFs at the beginning of ORFs in addition to the body of CDS | slightly stabilized the polysomes | –
2 | C/C(=C\[C@H](C)C(=O)C[C@H](O)CC1CC(=O)NC(=O)C1)[C@@H]1OC(=O)/C=C/CC/C=C/C=C\[C@@H]1C [LTM, lactimidomycin] | pronounced single peak located at the −12 nucleotide (nt) position relative to the annotated start codon | large increase in monosome accompanied by a depletion of polysomes | eliminated the excess of ribosomes seen at the stop codon
3 | COC(=O)C[C@](O)(CCC(C)(C)O)C(=O)O[C@@H]1C(OC)=C[C@]23CCCN2CCc2cc4c(cc2[C@H]13)OCO4 [harringtonine] | a substantial fraction of RPFs accumulated in regions downstream of the start codon | – | –

Source: patent US20130096012A1, “METHOD AND KIT FOR IDENTIFYING A TRANSLATION INITIATION SITE ON AN MRNA” (CORNELL UNIVERSITY, priority 2011, published 2013)
